Measured values published in US10456407B2, “Combination therapy for treating cancer” (Epizyme, Inc., priority 2015, dated 2019).
Where “and” joins values, the source holds several entries; their conditions need not be identical. Equal entries are not always repeated.

Test system: DOHH2 cells
Experiment: RT2 Glucocorticoid signaling PCR array, DOHH2 cell line (Table 4b)
Assay type: cell-based
Conditions: DOHH2, 4 days

Q: How did the “HPRT1 ΔCT (B2M)” value (normalized to B2M) turn out when `C[C@]12C=CC(=O)C=C1CC[C@@H]1[C@@H]2[C@@H](O)C[C@@]2(C)[C@H]1CC[C@]2(O)C(=O)CO` [Prednisolone, prednisolone] was run?
A: 2.893

Q: And the “IL1RN ΔCT (B2M)” value (normalized to B2M)?
A: 14.676

Q: And the “IL6 ΔCT (B2M)” value (normalized to B2M)?
A: 19.457

Q: And the “KLF9 ΔCT (B2M)” value (normalized to B2M)?
A: 9.663

Q: What about the “KLF13 ΔCT (B2M)” value (normalized to B2M) of the same compound?
A: 3.662

Q: And the “LOX ΔCT (B2M)” value (normalized to B2M)?
A: 15.274

Q: What about the “MERTK ΔCT (B2M)” value (normalized to B2M) of the same compound?
A: 14.008

Q: What about the “NFKBIA ΔCT (B2M)” value (normalized to B2M) of the same compound?
A: 3.946

Q: What about the “NR3C1 ΔCT (B2M)” value (normalized to B2M) of the same compound?
A: 3.910

Q: What about the “PDCD7 ΔCT (B2M)” value (normalized to B2M) of the same compound?
A: 4.668

Q: What about the “PDGFRB ΔCT (B2M)” value (normalized to B2M) of the same compound?
A: 16.050

Q: What about the “PDP1 ΔCT (B2M)” value (normalized to B2M) of the same compound?
A: 6.798

Q: And the “PER1 ΔCT (B2M)” value (normalized to B2M)?
A: 6.258

Q: What about the “PER2 ΔCT (B2M)” value (normalized to B2M) of the same compound?
A: 5.275

Q: And the “PIK3R1 ΔCT (B2M)” value (normalized to B2M)?
A: 4.966

Q: And the “PLD1 ΔCT (B2M)” value (normalized to B2M)?
A: 18.236

Q: And the “PLEKHF1 ΔCT (B2M)” value (normalized to B2M)?
A: 10.530

Q: What about the “POU2F1 ΔCT (B2M)” value (normalized to B2M) of the same compound?
A: 5.764

Q: And the “POU2F2 ΔCT (B2M)” value (normalized to B2M)?
A: 3.605

Q: What about the “RASA3 ΔCT (B2M)” value (normalized to B2M) of the same compound?
A: 8.919

Q: And the “RGS2 ΔCT (B2M)” value (normalized to B2M)?
A: 6.630

Q: What about the “RHOB ΔCT (B2M)” value (normalized to B2M) of the same compound?
A: 14.278

Q: What about the “RPLP0 ΔCT (B2M)” value (normalized to B2M) of the same compound?
A: −3.756

Q: And the “SESN1 ΔCT (B2M)” value (normalized to B2M)?
A: 3.955

Q: And the “SGK1 ΔCT (B2M)” value (normalized to B2M)?
A: 10.744

Q: And the “SLC10A6 ΔCT (B2M)” value (normalized to B2M)?
A: 17.292

Q: And the “SLC19A2 ΔCT (B2M)” value (normalized to B2M)?
A: 6.571

Q: What about the “SLC22A5 ΔCT (B2M)” value (normalized to B2M) of the same compound?
A: 10.031

Q: And the “SNTA1 ΔCT (B2M)” value (normalized to B2M)?
A: 6.240

Q: What about the “SPHK1 ΔCT (B2M)” value (normalized to B2M) of the same compound?
A: 11.087

Q: And the “SPSB1 ΔCT (B2M)” value (normalized to B2M)?
A: 8.027

Q: What about the “STAT5A ΔCT (B2M)” value (normalized to B2M) of the same compound?
A: 5.001

Q: And the “STAT5B ΔCT (B2M)” value (normalized to B2M)?
A: 3.748

Q: And the “TBL1XR1 ΔCT (B2M)” value (normalized to B2M)?
A: 2.420

Q: What about the “TNF ΔCT (B2M)” value (normalized to B2M) of the same compound?
A: 13.072

Q: What about the “TSC22D3 ΔCT (B2M)” value (normalized to B2M) of the same compound?
A: 4.426

Q: And the “USP2 ΔCT (B2M)” value (normalized to B2M)?
A: 4.617

Q: And the “USPS4 ΔCT (B2M)” value (normalized to B2M)?
A: 7.799

Q: What about the “VDR ΔCT (B2M)” value (normalized to B2M) of the same compound?
A: 7.963

Q: What about the “VLDLR ΔCT (B2M)” value (normalized to B2M) of the same compound?
A: 9.700

Q: What about the “ZFP36 ΔCT (B2M)” value (normalized to B2M) of the same compound?
A: 5.386

Q: And the “ZHX3 ΔCT (B2M)” value (normalized to B2M)?
A: 5.534

Q: What about the “ZNF281 ΔCT (B2M)” value (normalized to B2M) of the same compound?
A: 4.944

Q: What about the “RTC ΔCT (B2M)” value (normalized to B2M, array control, three lines) of the same compound?
A: 2.565 and 2.580 and 2.599

Q: And the “ADARB1 ΔΔCT” value (vs DMSO)?
A: 1.867

Q: And the “AFF1 ΔΔCT” value (vs DMSO)?
A: −0.567

Q: And the “AK2 ΔΔCT” value (vs DMSO)?
A: 0.053

Q: What about the “AMPD3 ΔΔCT” value (vs DMSO) of the same compound?
A: 1.259

Q: And the “ANGPTL4 ΔΔCT” value (vs DMSO)?
A: 0.529

Q: And the “ANXA4 ΔΔCT” value (vs DMSO)?
A: 0.305

Q: What about the “ARID68 ΔΔCT” value (vs DMSO) of the same compound?
A: 0.129

Q: What about the “ASPH ΔΔCT” value (vs DMSO) of the same compound?
A: 0.524

Q: What about the “ATF4 ΔΔCT” value (vs DMSO) of the same compound?
A: 0.282

Q: What about the “BCL6 ΔΔCT” value (vs DMSO) of the same compound?
A: 0.397

Q: What about the “BMPER ΔΔCT” value (vs DMSO) of the same compound?
A: 1.466

Q: What about the “CEBPA ΔΔCT” value (vs DMSO) of the same compound?
A: −2.341

Q: What about the “CEBPB ΔΔCT” value (vs DMSO) of the same compound?
A: 0.531

Q: And the “COL4A2 ΔΔCT” value (vs DMSO)?
A: 6.804

Q: And the “CREB1 ΔΔCT” value (vs DMSO)?
A: 0.085

Q: And the “CREB3L4 ΔΔCT” value (vs DMSO)?
A: 0.336

Q: And the “CREB3 ΔΔCT” value (vs DMSO)?
A: 0.061

Q: What about the “CTGF ΔΔCT” value (vs DMSO) of the same compound?
A: 0.142

Q: And the “CYB561 ΔΔCT” value (vs DMSO)?
A: 1.917

Q: And the “DDIT4 ΔΔCT” value (vs DMSO)?
A: 0.296

Q: What about the “DUSP1 ΔΔCT” value (vs DMSO) of the same compound?
A: 0.387

Q: What about the “EDN1 ΔΔCT” value (vs DMSO) of the same compound?
A: 1.155

Q: What about the “EHD3 ΔΔCT” value (vs DMSO) of the same compound?
A: −1.092

Q: What about the “ERRFI1 ΔΔCT” value (vs DMSO) of the same compound?
A: 0.235

Q: And the “FK8PS ΔΔCT” value (vs DMSO)?
A: −0.948

Q: What about the “FOSL2 ΔΔCT” value (vs DMSO) of the same compound?
A: −0.099

Q: What about the “GDPD1 ΔΔCT” value (vs DMSO) of the same compound?
A: 0.477

Q: And the “GHRHR ΔΔCT” value (vs DMSO)?
A: −1.464

Q: And the “GLUL ΔΔCT” value (vs DMSO)?
A: −1.434

Q: What about the “GOT1 ΔΔCT” value (vs DMSO) of the same compound?
A: 0.230

Q: And the “H6PD ΔΔCT” value (vs DMSO)?
A: 0.377

Q: And the “HNRPLL ΔΔCT” value (vs DMSO)?
A: 3.085

Q: What about the “KLF9 ΔΔCT” value (vs DMSO) of the same compound?
A: −0.019

Q: What about the “KLF13 ΔΔCT” value (vs DMSO) of the same compound?
A: −0.280

Q: And the “LOX ΔΔCT” value (vs DMSO)?
A: 0.721

Q: What about the “MERTK ΔΔCT” value (vs DMSO) of the same compound?
A: 0.020

Q: What about the “NFKBIA ΔΔCT” value (vs DMSO) of the same compound?
A: 0.064

Q: What about the “NR3C1 ΔΔCT” value (vs DMSO) of the same compound?
A: 0.317

Q: What about the “PDCD7 ΔΔCT” value (vs DMSO) of the same compound?
A: 0.021

Q: And the “PDP1 ΔΔCT” value (vs DMSO)?
A: −0.056

Q: And the “PER1 ΔΔCT” value (vs DMSO)?
A: 0.323

Q: What about the “PER2 ΔΔCT” value (vs DMSO) of the same compound?
A: −0.358

Q: What about the “PIK3R1 ΔΔCT” value (vs DMSO) of the same compound?
A: −0.202

Q: What about the “PLD1 ΔΔCT” value (vs DMSO) of the same compound?
A: 0.207

Q: And the “PLEKHF1 ΔΔCT” value (vs DMSO)?
A: −0.347

Q: And the “POU2F1 ΔΔCT” value (vs DMSO)?
A: 0.395

Q: What about the “POU2F2 ΔΔCT” value (vs DMSO) of the same compound?
A: 0.145

Q: What about the “RASA3 ΔΔCT” value (vs DMSO) of the same compound?
A: 0.776

Q: What about the “RGS2 ΔΔCT” value (vs DMSO) of the same compound?
A: 0.849

Q: What about the “RHOB ΔΔCT” value (vs DMSO) of the same compound?
A: 0.626

Q: What about the “SESN1 ΔΔCT” value (vs DMSO) of the same compound?
A: −1.262

Q: What about the “SGK1 ΔΔCT” value (vs DMSO) of the same compound?
A: 2.120

Q: What about the “SLC10A6 ΔΔCT” value (vs DMSO) of the same compound?
A: 1.818

Q: And the “SLC19A2 ΔΔCT” value (vs DMSO)?
A: −0.020

Q: What about the “SLC22A5 ΔΔCT” value (vs DMSO) of the same compound?
A: 0.648

Q: What about the “SNTA1 ΔΔCT” value (vs DMSO) of the same compound?
A: 0.665

Q: And the “SPHK1 ΔΔCT” value (vs DMSO)?
A: −0.581

Q: What about the “SPSB1 ΔΔCT” value (vs DMSO) of the same compound?
A: −0.074

Q: What about the “STAT5A ΔΔCT” value (vs DMSO) of the same compound?
A: −0.227

Q: What about the “STAT5B ΔΔCT” value (vs DMSO) of the same compound?
A: 0.254

Q: And the “TBL1XR1 ΔΔCT” value (vs DMSO)?
A: 0.032

Q: What about the “TNF ΔΔCT” value (vs DMSO) of the same compound?
A: 0.753

Q: What about the “TSC22D3 ΔΔCT” value (vs DMSO) of the same compound?
A: −1.741

Q: What about the “USP2 ΔΔCT” value (vs DMSO) of the same compound?
A: −0.478

Q: What about the “USPS4 ΔΔCT” value (vs DMSO) of the same compound?
A: 0.209

Q: What about the “VDR ΔΔCT” value (vs DMSO) of the same compound?
A: −0.434

Q: What about the “VLDLR ΔΔCT” value (vs DMSO) of the same compound?
A: 1.543

Q: What about the “ZFP36 ΔΔCT” value (vs DMSO) of the same compound?
A: 0.225

Q: And the “ZHX3 ΔΔCT” value (vs DMSO)?
A: −0.657

Q: What about the “ZNF281 ΔΔCT” value (vs DMSO) of the same compound?
A: −0.113
